Data set [1] can be described thus: Study HDP-CDV-112: mass balance and metabolite profiling of 14C-radiolabeled HDP-CDV. As to conditions: for metabolite AUC as share of total HDP-CDV-derived radioactivity AUC: plasma, through 24 h postdose. Here is the method:
The criteria for stopping urine and stool collection were assessed independently of each other.

In another data set the test system is AdV. The experiment in a line: In vitro antiviral activity in cell culture, AdV. The format is cell-based. As to conditions: unidentified adenovirus.
A further data set relates to HHV-6(B). Kind of data set: In vitro antiviral activity in cell culture, HHV-6(B). The format is cell-based, human herpesvirus 6. To be noted: Human betaherpesvirus 6, B-cell.
The next data set can be described thus: clinical. To be noted: human, in vivo. Here is the method: The pharmacokinetics of HDP-CDV (oral solution) were investigated in a dose-escalation study in healthy volunteers (Study HDP-CDV-102) in which single doses of up to 2 mg/kg and multiple doses (3 doses, each separated by 6 days) of up to 1 mg/kg were administered.

Structures are written as SMILES.

Consider `Nc1ccn(C[C@@H](CO)OCP(=O)(O)OCCCOCCCC(=O)O)c(=O)n1` [CMX064, 4-(3-propoxy)butanoic acid ester of CDV], for which the “in vitro pharmacological activity and cytotoxicity compared to HDP-CDV” value with ectromelia was “lower pharmacologic and cytotoxic activity”. Further, in data set [1] (drug-derived metabolites), the “percent dose excreted in urine” value is on record as 10%. The “metabolite AUC as share of total HDP-CDV-derived radioactivity AUC” value in data set [1] is given as about 23%.

For the molecule `Nc1nc(O)c2ncn(COC(CO)CO)c2n1` [Ganciclovir, ganciclovir], the EC50 was 4.5 to 33 µM in the data set with AdV and 5.9 µM with HHV-6(B).

Turning to `Nc1ccn(CC(CO)OCP(=O)(O)OCCCO)c(=O)n1` (stereo not drawn) [CMX103, 3-hydroxypropyl ester of CDV], the “in vitro pharmacological activity and cytotoxicity compared to HDP-CDV” value in the data set on ectromelia was “lower pharmacologic and cytotoxic activity”. In data set [1] (drug-derived metabolites), the “percent dose excreted in feces” value was 6% and the “percent dose excreted in urine” value is reported as 21%. The “metabolite AUC as share of total HDP-CDV-derived radioactivity AUC” value in data set [1] is recorded as “approximately 32%”.

Take `Nc1ccn(C[C@@H](CO)OCP(=O)(O)O)c(=O)n1` [Cidofovir, cidofovir, reference compound]: in the data set “clinical”, the “Cmax and AUC versus dose” value is “increased approximately in proportion to dose”; the “accumulation on Day 12” value is listed as “negligible accumulation”. Moreover, the “time of Cmax after administration” value in “clinical” (po) lay in the range of 9 to 15 h. Further, the “in vitro pharmacological activity and cytotoxicity compared to HDP-CDV” value with ectromelia was “lower pharmacologic and cytotoxic activity”. For the same molecule, it took 1.3 µM to reach a half-maximal effect with AdV (EC50). For the same molecule, the half-maximal effective concentration (EC50) with HHV-6(B) turned out to be 5.4 µM.

The EC50 is the concentration at which the effect is half-maximal.
